In ChEMBL document CHEMBL1136890, “Design, synthesis and anticancer activities of hybrids of indole and barbituric acids--identification of highly promising leads” (2009):

Assays:
Type in all cases: functional
UO-31 = assay: Growth inhibition of human UO31 cells at 10 uM; conditions: read-out: GI
RXF 393 = assay: Growth inhibition of human RXF393 cells at 10 uM; conditions: read-out: GI
COLO 205 = assay: Growth inhibition of human COLO205 cells; conditions: for CC50: read-out: LC50 (the source's name)
HOP-92 = assay: Growth inhibition of human HOP92 cells; conditions: for CC50: read-out: LC50 (the source's name)
MDA-MB-468 = assay: Growth inhibition of human MDA-MB-468 cells; conditions: for CC50: read-out: LC50 (the source's name)
CAKI-1 = assay: Growth inhibition of human Caki1 cells
K562 = assay: Growth inhibition of human K562 cells; conditions: for CC50: read-out: LC50 (the source's name)
T47D = assay: Growth inhibition of human T47D cells; conditions: for CC50: read-out: LC50 (the source's name)
NCI-H226 = assay: Growth inhibition of human NCI-H226 cells
SF-295 = assay: Growth inhibition of human SF295 cells; conditions: for CC50: read-out: LC50 (the source's name)
NCI-H460 = assay: Growth inhibition of human NCI-H460 cells
UACC-62 = assay: Growth inhibition of human UACC62 cells
[1] = Growth inhibition of human NCI60 cells
SK-MEL-2 = assay: Growth inhibition of human SK-MEL-2 cells; conditions: for CC50: read-out: LC50 (the source's name)
IGROV-1 = assay: Growth inhibition of human IGROV1 cells; conditions: for CC50: read-out: LC50 (the source's name)
TK-10 [2] = assay: Growth inhibition of human TK10 cells; conditions: for CC50: read-out: LC50 (the source's name)
TK-10 [3] = assay: Growth inhibition of human TK10 cells at 10 uM; conditions: read-out: GI
OVCAR-4 = assay: Growth inhibition of human OVCAR4 cells; conditions: for CC50: read-out: LC50 (the source's name)
OVCAR-5 = assay: Growth inhibition of human OVCAR5 cells; conditions: for CC50: read-out: LC50 (the source's name)
A498 = assay: Growth inhibition of human A498 cells; conditions: for CC50: read-out: LC50 (the source's name)

## O=C1NC(=O)C(=Cc2c[nH]c3ccccc23)C(=O)N1
UO-31
  inhibition of growth at 10 µM: 39%

## Cc1ccc(S(=O)(=O)n2cc(C=C3C(=O)N(C)C(=O)N(C)C3=O)c3ccccc32)cc1
UO-31
  inhibition of growth at 10 µM: 41%
RXF 393
  inhibition of growth at 10 µM: 52%

## O=C1NC(=O)C(=Cc2cn(C(=O)c3ccccc3)c3ccccc23)C(=O)N1
UO-31
  inhibition of growth at 10 µM: 36%
RXF 393
  inhibition of growth at 10 µM: 55%

## O=C1NC(=O)C(=Cc2cn(Cc3ccccc3)c3ccccc23)C(=O)N1
COLO 205
  GI50: 1.4 µM
  TGI: 10.9 µM
  CC50: 41.6 µM
HOP-92
  GI50: 1.5 µM
  TGI: 15 µM
  CC50: 58.8 µM
MDA-MB-468
  GI50: 0.1 µM
  TGI: 0.38 µM
  CC50: > 100 µM
CAKI-1
  GI50: 4.6 µM
  LC50: 93 µM
  TGI: 25.7 µM
K562
  GI50: 3.1 µM
  TGI: 23 µM
  CC50: > 100 µM
UO-31
  inhibition of growth at 10 µM: 29%
T47D
  GI50: 4.5 µM
  TGI: 22.3 µM
  CC50: 95 µM
NCI-H226
  GI50: 5.4 µM
  LC50: > 100 µM
  TGI: 28 µM
SF-295
  GI50: 3.3 µM
  TGI: 70.7 µM
  CC50: > 100 µM
NCI-H460
  GI50: 0.3 µM
  LC50: 63 µM
  TGI: 16.5 µM
UACC-62
  GI50: 1.6 µM
  LC50: > 100 µM
  TGI: 16.5 µM
[1]
  GI50: 7.5 µM
SK-MEL-2
  GI50: 2.9 µM
  TGI: 23.4 µM
  CC50: > 100 µM
IGROV-1
  GI50: 0.48 µM
  TGI: 10.4 µM
  CC50: 63 µM
TK-10 [2]
  GI50: 2 µM
  TGI: 8.3 µM
  CC50: > 100 µM
TK-10 [3]
  inhibition of growth at 10 µM: 71%
OVCAR-4
  GI50: 2 µM
  TGI: 44 µM
  CC50: > 100 µM
OVCAR-5
  GI50: 0.3 µM
  TGI: 3.8 µM
  CC50: 39.8 µM
A498
  GI50: 0.03 µM
  TGI: 0.26 µM
  CC50: 1.09 µM

## O=C1NC(=O)C(=Cc2cn(C(=O)c3ccc(Cl)cc3)c3ccccc23)C(=O)N1
UO-31
  inhibition of growth at 10 µM: 22%

## CN1C(=O)C(=Cc2c[nH]c3ccccc23)C(=O)N(C)C1=O
UO-31
  inhibition of growth at 10 µM: 33%

## CN1C(=O)C(=Cc2cn(C(=O)c3ccc(Cl)cc3)c3ccccc23)C(=O)N(C)C1=O
RXF 393
  inhibition of growth at 10 µM: 33%

## CN1C(=O)C(=Cc2cn(Cc3ccccc3)c3ccccc23)C(=O)N(C)C1=O
COLO 205
  GI50: 0.7 µM
  TGI: 9.1 µM
  CC50: > 100 µM
HOP-92
  GI50: 8.3 µM
  TGI: 50 µM
  CC50: > 100 µM
MDA-MB-468
  GI50: 0.02 µM
  TGI: 0.06 µM
  CC50: 0.69 µM
CAKI-1
  GI50: 0.5 µM
  LC50: > 100 µM
  TGI: 6.4 µM
K562
  GI50: 4.3 µM
  TGI: > 100 µM
  CC50: > 100 µM
UO-31
  inhibition of growth at 10 µM: 36%
T47D
  GI50: 5 µM
  TGI: > 100 µM
  CC50: > 100 µM
NCI-H226
  GI50: 3.4 µM
  LC50: > 100 µM
  TGI: 27 µM
SF-295
  GI50: 1.1 µM
  TGI: > 100 µM
  CC50: > 100 µM
NCI-H460
  GI50: 4.1 µM
  LC50: > 100 µM
  TGI: > 100 µM
UACC-62
  GI50: 1 µM
  LC50: > 100 µM
  TGI: 12.5 µM
[1]
  GI50: 13.8 µM
SK-MEL-2
  GI50: 3 µM
  TGI: 45.7 µM
  CC50: > 100 µM
IGROV-1
  GI50: 0.06 µM
  TGI: 0.26 µM
  CC50: 0.85 µM
TK-10 [2]
  GI50: 3.1 µM
  TGI: 57.5 µM
  CC50: > 100 µM
TK-10 [3]
  inhibition of growth at 10 µM: 95%
OVCAR-4
  GI50: 6.1 µM
  TGI: > 100 µM
  CC50: > 100 µM
OVCAR-5
  GI50: 0.1 µM
  TGI: 0.67 µM
  CC50: > 100 µM
RXF 393
  inhibition of growth at 10 µM: 43%
A498
  GI50: 0.2 µM
  TGI: 0.64 µM
  CC50: 2.29 µM

## Cc1ccc(S(=O)(=O)n2cc(C=C3C(=O)NC(=O)NC3=O)c3ccccc32)cc1
UO-31
  inhibition of growth at 10 µM: 32%

## CN1C(=O)C(=Cc2cn(C(=O)c3ccccc3)c3ccccc23)C(=O)N(C)C1=O
UO-31
  inhibition of growth at 10 µM: 36%
RXF 393
  inhibition of growth at 10 µM: 55%

## O=c1[nH]cc(F)c(=O)[nH]1 [FLUOROURACIL]
[1]
  GI50: 17.7 µM

## COc1ccc2c(c1)c(CC(=O)O)c(C)n2C(=O)c1ccc(Cl)cc1 [INDOMETHACIN]
[1]
  GI50: 64.3 µM
